# Where a name gives a salt, the structure may show the parent alone.
# Tested on: Von Bezold-Jarisch Reflex induced by 5-HT
# Test: Von Bezold-Jarisch Reflex induced by 5-HT injected intravenously into the rat
# Format: in vivo
# From the text: The activity of these compounds against 5-HT can be assessed in vivo by measurement of the effect of the compound on the Von Bezold-Jarisch Reflex induced by 5-HT injected intravenously into the rat (see Paintal A.S., Physiol. Rev. 53, 159-227, 1973; J.R. Fozard, Naunyn-Schmiedeberg's Arch. Pharmacol., 326, 1984, 36-44). The transient cardiac slowing arises from an increased afferent vagus activity arising from stimulation by 5-HT of sensory afferent fibers in and around the heart.
# [1] = doses of 0.01-0.1 mg/kg given intravenously
# [2] = doses of 0.25-1 mg/kg given orally
SMILES,suppression of the Von Bezold-Jarisch Reflex induced by 5-HT [1],suppression of the Von Bezold-Jarisch Reflex induced by 5-HT [2]
"Cc1cc(C)cc(C(=O)OC2CC3CC4CC(C2)N3CC4=O)c1 (stereo not drawn) [endo-8-(3,5-dimethylbenzoyloxy)hexahydro-2,6-methano-2H-quinolizin-3(4H)-one hydrochloride]",suppressed the response dose-dependently,suppressed the response dose-dependently
"O=C(OC1CC2CC3CC(C1)N2CC3=O)c1c[nH]c2ccccc12 (stereo not drawn) [endo-hexahydro-8-(3-indolylcarbonyloxy)-2,6-methano-2H-quinolizin-3(4H)one hydrochloride]",suppressed the response dose-dependently,suppressed the response dose-dependently

# Reference: patent EP0329905A1, “Use of quinolizine and quinolizinone derivatives in the manufacture of medicaments for increasing gastric motility” (MERRELL DOW PHARMACEUTICALS INC., priority 1988, dated 1989)
